This is an account of results in patent US9926281B2 (priority 2014, dated 2018).

Assay [1] deals with human MMP13 (Homo sapiens (Human), UniProt P45452). Conditions: read-out: hMMP-13 potency IC50.
Experimental: Human MMP13 is preactivated by incubated the enzyme in the same buffer complemented with 1 mM freshly prepared p-Aminophenylmercuric acetate (AMPA) for 1 hour at 37° C.
Assay [2] concerns the target rnADAMTS-5 (1-564-6H) (Rattus norvegicus, UniProt Q6TY19). Conditions: read-out: Rat ADAMTS-5 potency IC50.
Assay [3] concerns the target human TACE (Homo sapiens (Human), UniProt P78536). Conditions: read-out: TACE potency IC50.
In assay [4] the target is human ADAMTS-5 (Homo sapiens (Human), UniProt Q9UNA0). Conditions: read-out: hADAMTS-5 potency IC50.
Sequence of human ADAMTS-5 (Q9UNA0 262-930): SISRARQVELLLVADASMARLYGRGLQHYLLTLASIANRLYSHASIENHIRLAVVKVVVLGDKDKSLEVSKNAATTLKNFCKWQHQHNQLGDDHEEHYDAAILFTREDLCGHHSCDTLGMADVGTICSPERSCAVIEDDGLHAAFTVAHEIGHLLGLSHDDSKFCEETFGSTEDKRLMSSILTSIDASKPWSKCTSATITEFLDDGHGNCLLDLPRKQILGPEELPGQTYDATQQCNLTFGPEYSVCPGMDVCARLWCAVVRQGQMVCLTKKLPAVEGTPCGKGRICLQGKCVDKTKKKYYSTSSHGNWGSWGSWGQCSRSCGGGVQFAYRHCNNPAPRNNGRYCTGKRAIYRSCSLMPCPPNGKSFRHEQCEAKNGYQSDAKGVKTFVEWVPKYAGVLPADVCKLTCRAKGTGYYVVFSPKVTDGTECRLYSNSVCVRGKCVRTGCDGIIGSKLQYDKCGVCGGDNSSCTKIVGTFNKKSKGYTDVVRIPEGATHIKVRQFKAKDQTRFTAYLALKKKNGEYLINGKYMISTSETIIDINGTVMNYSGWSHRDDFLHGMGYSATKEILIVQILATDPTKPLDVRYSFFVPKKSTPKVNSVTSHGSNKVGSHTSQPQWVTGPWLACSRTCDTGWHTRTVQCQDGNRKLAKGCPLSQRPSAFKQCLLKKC
Experimental: Finally, the fluorescence is read on the Envision (Perkin Elmer) after an incubation of 90 min at 37° C.

Molecules are shown by their SMILES.

Sequence of human TACE (P78536 whole entry, looked up, change not shown): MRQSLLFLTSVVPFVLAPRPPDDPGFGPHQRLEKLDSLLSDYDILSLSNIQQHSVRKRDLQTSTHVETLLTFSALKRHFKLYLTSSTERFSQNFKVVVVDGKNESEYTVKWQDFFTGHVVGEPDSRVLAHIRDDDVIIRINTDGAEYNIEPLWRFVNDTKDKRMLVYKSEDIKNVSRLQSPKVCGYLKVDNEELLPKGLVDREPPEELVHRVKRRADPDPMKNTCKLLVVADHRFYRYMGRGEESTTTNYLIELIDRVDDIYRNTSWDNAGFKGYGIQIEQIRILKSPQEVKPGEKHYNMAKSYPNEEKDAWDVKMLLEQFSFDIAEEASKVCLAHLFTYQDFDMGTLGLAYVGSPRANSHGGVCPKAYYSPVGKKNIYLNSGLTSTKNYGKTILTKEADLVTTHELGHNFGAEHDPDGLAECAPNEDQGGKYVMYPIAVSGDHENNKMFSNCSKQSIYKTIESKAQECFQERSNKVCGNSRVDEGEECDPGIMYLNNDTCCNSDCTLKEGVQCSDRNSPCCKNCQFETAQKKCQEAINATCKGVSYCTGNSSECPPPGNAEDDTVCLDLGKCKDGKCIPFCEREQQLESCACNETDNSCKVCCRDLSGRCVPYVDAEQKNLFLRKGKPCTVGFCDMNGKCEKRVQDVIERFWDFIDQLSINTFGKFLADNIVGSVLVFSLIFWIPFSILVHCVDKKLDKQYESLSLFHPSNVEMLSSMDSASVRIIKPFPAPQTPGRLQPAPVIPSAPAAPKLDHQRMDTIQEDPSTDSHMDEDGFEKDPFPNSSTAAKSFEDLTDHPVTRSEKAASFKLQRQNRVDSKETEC

Regarding `CC(C)C1(CCC(=O)N2CCN(c3cccc(Cl)c3)CC2)NC(=O)NC1=O` (stereo not drawn) [compound 53, 5-[3-[4-(3-chlorophenyl)piperazin-1-yl]-3-oxo-propyl]-5-isopropyl-imidazolidine-2,4-dione], the half-inhibitory concentration (IC50) (as a rule, the point on the concentration scale where inhibition reaches its midpoint) in assay [1] was more than 20 µM; in assay [2], 0.179 µM; in assay [3], more than 4 µM.
On the same counts, the results for `Cc1ccc(Cl)cc1N1CCN(C(=O)CCC2(c3ccc(Cl)cc3)NC(=O)NC2=O)CC1` (stereo not drawn) [compound 75, 5-[3-[4-(5-chloro-2-methyl-phenyl)piperazin-1-yl]-3-oxo-propyl]-5-(4-chlorophenyl)imidazolidine-2,4-dione] are more than 20 µM, 0.141 µM and 0.55 µM.
In the case of `Cc1c(Cl)cccc1N1CCN(C(=O)CCC2(C3CC3)NC(=O)NC2=O)CC1` (stereo not drawn) [compound 98, 5-[3-[4-(3-chloro-2-methyl-phenyl)piperazin-1-yl]-3-oxo-propyl]-5-cyclopropyl-imidazolidine-2,4-dione], the IC50 in assay [1] is more than 20 µM; in assay [2], 0.082 µM; in assay [3], more than 4 µM.
Taken in the same sequence, the figures for `Cc1c(F)cccc1N1CCN(C(=O)CCC2(C3CC3)NC(=O)NC2=O)CC1` (stereo not drawn) [compound 99, 5-cyclopropyl-5-[3-[4-(3-fluoro-2-methyl-phenyl)piperazin-1-yl]-3-oxo-propyl]imidazolidine-2,4-dione] were more than 20 µM, 0.116 µM and more than 14.7 µM.
As for `Cc1c(Cl)cccc1N1CCN(C(=O)CCC2(c3cccnc3)NC(=O)NC2=O)CC1` (stereo not drawn) [compound 102, 5-[3-[4-(3-chloro-2-methyl-phenyl)piperazin-1-yl]-3-oxo-propyl]-5-(3-pyridyl)imidazolidine-2,4-dione], the IC50 in assay [1] was more than 20 µM; in assay [2], 0.094 µM; in assay [3], 3.4 µM.
On to `O=C1NC(=O)C(CCC(=O)N2CCN(c3cccc(F)c3)CC2)(c2cccnc2)N1` (stereo not drawn) [compound 112, 5-[3-[4-(3-fluorophenyl)piperazin-1-yl]-3-oxo-propyl]-5-(3-pyridyl)imidazolidine-2,4-dione], for which the IC50 in assay [1] is 1.88 µM; in assay [2], 0.039 µM; in assay [3], more than 4 µM.
With `O=C1NC(=O)C(CCC(=O)N2CCN(c3cccc(F)c3)CC2)(C2CC2)N1` (stereo not drawn) [compound 115, 5-cyclopropyl-5-[3-[4-(3-fluorophenyl)piperazin-1-yl]-3-oxo-propyl]imidazolidine-2,4-dione], the IC50 in assay [1] was more than 4 µM; in assay [2] it was 0.038 µM; in assay [3], more than 20 µM.
As to `Cc1ccc(F)cc1N1CCN(C(=O)CCC2(C3CC3)NC(=O)NC2=O)CC1` (stereo not drawn) [compound 116, 5-cyclopropyl-5-[3-[4-(5-fluoro-2-methyl-phenyl)piperazin-1-yl]-3-oxo-propyl]imidazolidine-2,4-dione], the IC50 in assay [1] was more than 20 µM; in assay [2], 0.029 µM; in assay [3], more than 4.64 µM.
With `CS(=O)(=O)c1ccc(C2(CCC(=O)N3CCN(c4cccc(Cl)c4)CC3)NC(=O)NC2=O)cc1` (stereo not drawn) [compound 124, 5-[3-[4-(3-chlorophenyl)piperazin-1-yl]-3-oxo-propyl]-5-(4-methylsulfonylphenyl)imidazolidine-2,4-dione], the values for the IC50 in assay [1], in assay [2] and in assay [3] were 1.28 µM, 0.037 µM and 0.88 µM, respectively.
For the molecule `C[C@H]1CN(C(=O)CCC2(C3CC3)NC(=O)NC2=O)CCN1c1ccccc1` (stereo partly drawn) [compound 135, 5-cyclopropyl-5-[3-[(3S)-3-methyl-4-phenyl-piperazin-1-yl]-3-oxo-propyl]imidazolidine-2,4-dione], the results for the IC50 in assay [1], in assay [2] and in assay [3] were more than 20 µM, 0.125 µM and more than 20 µM, respectively.
`C[C@H]1CN(C(=O)CCC2(c3cccnc3)NC(=O)NC2=O)CCN1c1ccccc1` (stereo partly drawn) [compound 136, 5-[3-[(3S)-3-methyl-4-phenyl-piperazin-1-yl]-3-oxo-propyl]-5-(3-pyridyl)imidazolidine-2,4-dione]: the IC50 in assay [1] was more than 20 µM; in assay [2], 0.242 µM; in assay [3], more than 20 µM.
As for `C[C@H]1CN(C(=O)CCC2(C3CC3)NC(=O)NC2=O)CCN1c1cc(Cl)cc(Cl)c1` (stereo partly drawn) [compound 142, 5-cyclopropyl-5-[3-[(3S)-4-(3,5-dichlorophenyl)-3-methyl-piperazin-1-yl]-3-oxo-propyl]imidazolidine-2,4-dione], the IC50 in assay [1] is more than 20 µM; in assay [2], 0.054 µM; in assay [3], more than 4 µM.
On the same counts, the results for `Cc1ccc(F)cc1N1CCN(C(=O)CCC2(C)NC(=O)NC2=O)C[C@@H]1C` (stereo partly drawn) [compound 145, 5-[3-[(3S)-4-(5-fluoro-2-methyl-phenyl)-3-methyl-piperazin-1-yl]-3-oxo-propyl]-5-methyl-imidazolidine-2,4-dione] are more than 20 µM, 0.563 µM and more than 4 µM.
`COc1ccccc1C1(CCC(=O)N2CCN(c3cccc(Cl)c3)CC2)NC(=O)NC1=O` (stereo not drawn) [compound 146, 5-[3-[4-(3-chlorophenyl)piperazin-1-yl]-3-oxo-propyl]-5-(2-methoxyphenyl)imidazolidine-2,4-dione]: the IC50 is 3.88 µM in assay [1], 0.133 µM in assay [2] and 1.58 µM in assay [3].
As for `C[C@H]1CN(C(=O)CCC2(C3CC3)NC(=O)NC2=O)CCN1c1ccc(Cl)cc1` (stereo partly drawn) [compound 147, 5-[3-[(3S)-4-(4-chlorophenyl)-3-methyl-piperazin-1-yl]-3-oxo-propyl]-5-cyclopropyl-imidazolidine-2,4-dione], the IC50 was more than 4 µM in assay [1], 0.099 µM in assay [2] and more than 4 µM in assay [3].
For the molecule `Cc1ccc(F)cc1N1CCN(C(=O)CCC2(C3CC3)NC(=O)NC2=O)C[C@@H]1C` (stereo partly drawn) [compound 148, 5-cyclopropyl-5-[3-[(3S)-4-(5-fluoro-2-methyl-phenyl)-3-methyl-piperazin-1-yl]-3-oxo-propyl]imidazolidine-2,4-dione], the IC50 in assay [1] was more than 20 µM; in assay [2], 0.097 µM; in assay [3] it was more than 4 µM.
On the same counts, the results for `C[C@H]1CN(C(=O)CCC2(C3CC3)NC(=O)NC2=O)CCN1c1cccc(F)c1` (stereo partly drawn) [compound 151, 5-cyclopropyl-5-[3-[(3S)-4-(3-fluorophenyl)-3-methyl-piperazin-1-yl]-3-oxo-propyl]imidazolidine-2,4-dione] are more than 20 µM, 0.083 µM and more than 20 µM.
On the same counts, the results for `C[C@H]1CN(C(=O)CCC2(C3CC3)NC(=O)NC2=O)CCN1c1cccc(Cl)c1` (stereo partly drawn) [compound 152, 5-[3-[(3S)-4-(3-chlorophenyl)-3-methyl-piperazin-1-yl]-3-oxo-propyl]-5-cyclopropyl-imidazolidine-2,4-dione] are more than 20 µM, 0.062 µM and more than 20 µM.
As for `O=C1Cc2cc(C3(CCC(=O)N4CCN(c5cccc(Cl)c5)CC4)NC(=O)NC3=O)ccc2N1` (stereo not drawn) [compound 153, 5-[3-[4-(3-chlorophenyl)piperazin-1-yl]-3-oxo-propyl]-5-(2-oxoindolin-5-yl)imidazolidine-2,4-dione], the IC50 was more than 4 µM in assay [1], 0.114 µM in assay [2] and 2.27 µM in assay [3].
Turning to `COCCN(C)CC1(CCC(=O)N2CCN(c3cccc(Cl)c3)CC2)NC(=O)NC1=O` (stereo not drawn) [compound 154, 5-[3-[4-(3-chlorophenyl)piperazin-1-yl]-3-oxo-propyl]-5-[[2-methoxyethyl(methyl)amino]methyl]imidazolidine-2,4-dione], the IC50 in assay [1] was more than 4 µM; in assay [2] it was 0.507 µM; in assay [3] it was more than 20 µM.
As for `C[C@H]1CN(C(=O)CCC2(C)NC(=O)NC2=O)CCN1c1cc(F)cc(F)c1` (stereo partly drawn) [compound 156, 5-[3-[(3S)-4-(3,5-difluorophenyl)-3-methyl-piperazin-1-yl]-3-oxo-propyl]-5-methyl-imidazolidine-2,4-dione], the IC50 was more than 20 µM in assay [1], 0.128 µM in assay [2] and more than 20 µM in assay [3].
As to `C[C@H]1CN(C(=O)CCC2(C)NC(=O)NC2=O)CCN1c1cccc(F)c1` (stereo partly drawn) [compound 157, 5-[3-[(3S)-4-(3-fluorophenyl)-3-methyl-piperazin-1-yl]-3-oxo-propyl]-5-methyl-imidazolidine-2,4-dione], the values for the IC50 in assay [1], in assay [2] and in assay [3] were more than 20 µM, 0.284 µM and more than 20 µM, respectively.
Consider `C[C@]1(CCC(=O)N2CCN(c3cc(Cl)cc(Cl)c3)CC2)NC(=O)NC1=O` [compound 159, (5R)-5-[3-[4-(3,5-dichlorophenyl)piperazin-1-yl]-3-oxo-propyl]-5-methyl-imidazolidine-2,4-dione], for which the IC50 was more than 20 µM in assay [1], 0.127 µM in assay [2] and 1.87 µM in assay [3].
On the same counts, the results for `C[C@H]1CN(C(=O)CCC2(C3CC3)NC(=O)NC2=O)CCN1c1cc(F)cc(F)c1` (stereo partly drawn) [compound 160, 5-cyclopropyl-5-[3-[(3S)-4-(3,5-difluorophenyl)-3-methyl-piperazin-1-yl]-3-oxo-propyl]imidazolidine-2,4-dione] are more than 20 µM, 0.036 µM and more than 20 µM.
On to `C[C@H]1CN(C(=O)CCC2(C)NC(=O)NC2=O)CCN1c1cc(F)cc(Cl)c1` (stereo partly drawn) [compound 170, 5-[3-[(3S)-4-(3-chloro-5-fluoro-phenyl)-3-methyl-piperazin-1-yl]-3-oxo-propyl]-5-methyl-imidazolidine-2,4-dione], for which the IC50 was more than 20 µM in assay [1], 0.244 µM in assay [2] and 0.17 µM in assay [4].
Taken in the same sequence, the figures for `CC(CC1NC(=O)NC1=O)C(=O)N1CCN(c2cc(Cl)cc(Cl)c2)CC1` (stereo not drawn) [compound 200, 5-[3-[4-(3,5-dichlorophenyl)piperazin-1-yl]-2-methyl-3-oxo-propyl]imidazolidine-2,4-dione] were more than 20 µM, 0.135 µM and 0.109 µM.
